Measured values as given in US20110263454A1, “Methods of Identifying Functional Characteristics of Promoters, Transcription Modifying Proteins and Transcription Modulating Agents” (Salk Institute for Biological Studies, priority 2008, published 2011).

Assays:
mUCP2 promoter = assay: NHR-promoter luciferase screen, mUCP2 promoter; assay type: cell-based, mouse
Method in brief: (§1)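 CV-1 cells were co-transfected with 50 ng NHR (homodimer or NHR/RXR heterodimer), 100 ng promoter-luciferase construct and 50 ng LacZ. Luciferase was normalized to LacZ and to a no-NHR/no-ligand control.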

mAgrp promoter = assay: NHR-promoter luciferase screen, mAgrp promoter; assay type: cell-based, mouse
Method in brief: as §1

hIFNg promoter = assay: NHR-promoter luciferase screen, hIFNg promoter; assay type: cell-based, human
Method in brief: as §1

FGF1A promoter = assay: FGF family promoter luciferase reporter screen by NHRs, FGF1A; assay type: cell-based, human; settings: FIG. 43, in words
Description: (§2) Screening for FGF regulation by NHRs. The methods described herein provide a straightforward, high throughput, sensitive and quantitative strategy to identify therapeutic agonists and antagonists that can predictably modulate FGF and FGFR expression for therapeutic benefit. Promoter constructs were designed and screened for all 22 members of the FGF-family for novel regulation by the NHRs. Of particular interest is the strong and specific transcriptional regulation of FGF1A, one of the alternative splice variants of FGF1, by PPARγ (FIG. 43). The FGF 1 gene is regulated by at least three (A, B and D) different promoters. Alternative splicing of these promoters to the three exons of the FGF1 gene results in identical but differentially expressed FGF1 polypeptides (FIG. 44). FGF1A is highly expressed in heart, kidney and adipose, FGF1B is highly expressed in brain and FGF1D is highly expressed in liver.
FGF1A promoter analysis. To gain more insight into the regulation of the FGF1A promoter by PPARγ, the putative PPRE was localized. […] The evolutionary conservation of FGF1A was determined and found to be highly conserved in a wide range of mammals (bovine, canine, horse, chimpanzee, human, orangutan, rat, mouse, and opossum). […] In addition to a strong conservation of the PPRE in this promoter, several other highly conserved elements were detected (e.g. SP1, HMTB, EVI1 and E-box).

FGF1D promoter = assay: FGF family promoter luciferase reporter screen by NHRs, FGF1D; assay type: cell-based, human; settings: FIG. 43, in words
Description: as §2

[1] = IFNg promoter, HR component without or with ligand

PPARg: Peroxisome proliferator activated receptor γ (NR1C3), cDNA driver
Luc. act., normalized to lacZ (mUCP2 promoter; mUCP2 promoter reporter, co-transfected HR, with or without its ligand): 171.6
Normalized Luc. act., normalized to control (mUCP2 promoter; mUCP2 promoter reporter, co-transfected HR, with or without its ligand, relative to control): 1.6
luciferase activity normalized to lacZ activity and to a control, mUCP2 (mUCP2 promoter; mUCP2 promoter-luciferase, CV-1 cells, NHR +/- ligand, control = 1.00): 1.56
Results of assays of transcription factor (+/- ligand) with mAgrp (mAgrp promoter; Table 6d, luciferase activity relative to control (control = 1.00)): 1.84
luciferase/LacZ, mAgrp (selected results) (mAgrp promoter; mAgrp promoter-luciferase, NHR +/- ligand, control = 1.0): 1.8
Luc. act., normalized to lacZ (mAgrp promoter; mAgrp promoter, HR component with or without ligand): 73.0
Normalized Luc. act., normalized to control (mAgrp promoter; mAgrp promoter, HR component with or without ligand, relative to control): 1.8
Luc. act., normalized to lacZ (hIFNg promoter; [1]): 24.04
Normalized Luc. act., normalized to control (hIFNg promoter; [1]): 1.5
hIFNg promoter reporter activity (hIFNg promoter; transcription factor +/- ligand, control = 1.00): 1.51
activation of FGF1A promoter, luciferase reporter assay (FGF1A promoter): strong activation
activation of FGF1D promoter, luciferase reporter assay (FGF1D promoter): moderate activation
